Measured values: ChEMBL document CHEMBL1201862, “PubChem BioAssay data set” (2004)
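Cultured in 96-well plates, cells were exposed to test compound for 48 hours across five concentrations. GI50 marks 50% less growth.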 Activity calls are given as the source filed them. No stated cut-off is given here; in the data, active = GI50 up to about 1.1 µM and inactive = higher.

Assays:
Assay in all cases: growth of human tumour cells (NCI), 48 h
RXF 393 = system: RXF 393
HCT-116 = system: HCT-116
SF-539 = system: SF-539
U-251 = system: U-251
OVCAR-3 = system: OVCAR-3
UO-31 = system: UO-31
NCI-H23 = system: NCI-H23
SK-MEL-28 = system: SK-MEL-28
RPMI-8226 = system: RPMI-8226
KM12 = system: KM12
CAKI-1 = system: CAKI-1
Hs-578T = system: Hs-578T
786-0 = system: 786-0
NCI-H226 = system: NCI-H226
T47D = system: T47D
NCI/ADR-RES = system: NCI/ADR-RES
SNB-19 = system: SNB-19
HL-60 = system: HL-60
HOP-92 = system: HOP-92

| SMILES | GI50 (RXF 393) | GI50 (HCT-116) | GI50 (SF-539) | GI50 (U-251) | GI50 (OVCAR-3) | GI50 (UO-31) | GI50 (NCI-H23) | GI50 (SK-MEL-28) | GI50 (RPMI-8226) | GI50 (KM12) | GI50 (CAKI-1) | GI50 (Hs-578T) | GI50 (786-0) | GI50 (NCI-H226) | GI50 (T47D) | GI50 (NCI/ADR-RES) | GI50 (SNB-19) | GI50 (HL-60) | GI50 (HOP-92) |
| --- | --- | --- | --- | --- | --- | --- | --- | --- | --- | --- | --- | --- | --- | --- | --- | --- | --- | --- | --- |
| c1ccc2c3ccn4ccc5c6ccccc6[nH]c5c4c-3nc2c1 | 1.32 µM (inactive) | 0.306 µM (active) | 1.55 µM (inactive) | 0.155 µM (active) | 0.236 µM (active) | 1.39 µM (inactive) | 1.69 µM (inactive) | 1.7 µM (inactive) | 0.255 µM (active) | 0.908 µM (active) | 1.42 µM (inactive) | 1.6 µM (inactive) | 0.163 µM (active) | 1.67 µM (inactive) | 1.15 µM (inactive) | 1.72 µM (inactive) | 1.49 µM (inactive) | 0.935 µM (active) | 1.43 µM (inactive) |
| Oc1c(Br)c(-c2ccccc2)nc2ccccc12 | 63.1 µM (inactive) | 53.3 µM (inactive) | 82.8 µM (inactive) | 98.4 µM (inactive) | 50.5 µM (inactive) | 4.71 µM (inactive) | 22.1 µM (inactive) | 89.1 µM (inactive) | 20.7 µM (inactive) | 1.18 µM (inactive) | 6.32 µM (inactive) | > 89.1 µM (inactive) |  | 8.47 µM (inactive) | 8.3 µM (inactive) | 35.1 µM (inactive) | > 10 µM (inactive) | 12.2 µM (inactive) | 8 µM (inactive) |
| C/C=C(/C)C(=O)O[C@@H]1c2c(C)coc2C[C@H]2CC[C@H](O)[C@H](C)[C@]21C | 27 µM (inactive) | 31.6 µM (inactive) | 31.9 µM (inactive) | > 100 µM (inactive) | 27 µM (inactive) | 68.2 µM (inactive) | 34.2 µM (inactive) | 44.8 µM (inactive) | 31.3 µM (inactive) | 46.2 µM (inactive) | > 100 µM (inactive) | 64.7 µM (inactive) |  | 52.1 µM (inactive) | 68.9 µM (inactive) | 23.1 µM (inactive) | > 100 µM (inactive) | 34.5 µM (inactive) | 74.8 µM (inactive) |
| CC1=C(C(=O)N[C@@H](Cc2ccccc2)C(=O)O)N2C(=O)[C@@H](NC(=O)[C@@H](N)CC(C)C)[C@H]2SC1 | > 100 µM (inactive) |  | > 100 µM (inactive) | > 100 µM (inactive) | > 100 µM (inactive) |  |  | > 100 µM (inactive) | > 100 µM (inactive) | > 100 µM (inactive) | > 100 µM (inactive) | > 100 µM (inactive) | > 100 µM (inactive) | > 100 µM (inactive) | > 100 µM (inactive) | > 100 µM (inactive) | > 100 µM (inactive) | > 100 µM (inactive) | > 100 µM (inactive) |
| CCOC(=O)CCC(C(=O)OCC)n1nnc2ccc(Nc3c(C)[n+]([O-])c4cc(F)c(OCC)cc4[n+]3[O-])cc21 (centres undefined) | 41.8 µM (inactive) | 64.3 µM (inactive) | 24.8 µM (inactive) | 63.8 µM (inactive) | 25.4 µM (inactive) | 54 µM (inactive) | 73.3 µM (inactive) |  | 21.5 µM (inactive) | 80.4 µM (inactive) | 66.1 µM (inactive) | > 100 µM (inactive) | > 100 µM (inactive) | 48.5 µM (inactive) | 30.2 µM (inactive) | 87.7 µM (inactive) | > 100 µM (inactive) | 36.8 µM (inactive) | 24.6 µM (inactive) |
| O=C1CSC2(CC(/C=C/c3ccccc3Br)=NN2c2cccc(S(=O)(=O)O)c2)N1c1nc2ccccc2s1 (centres undefined) | > 100 µM (inactive) | > 100 µM (inactive) | > 100 µM (inactive) | 75.5 µM (inactive) |  | 93.5 µM (inactive) | > 100 µM (inactive) | > 100 µM (inactive) | 44.8 µM (inactive) | 98.4 µM (inactive) | > 100 µM (inactive) | > 100 µM (inactive) | > 100 µM (inactive) | 53.2 µM (inactive) | 27.6 µM (inactive) | > 100 µM (inactive) | > 100 µM (inactive) | > 100 µM (inactive) | 87.9 µM (inactive) |
| COC(=O)c1n[nH]c(C)c1/N=N/N(C)CCC#N | 13.3 µM (inactive) | 16.4 µM (inactive) | 15.2 µM (inactive) | 16.7 µM (inactive) | 18.7 µM (inactive) | 0.301 µM (active) | 16.3 µM (inactive) | 29.8 µM (inactive) | 10.2 µM (inactive) | 14.8 µM (inactive) | 11.3 µM (inactive) | 20.8 µM (inactive) | 17.7 µM (inactive) | 12.8 µM (inactive) | 14 µM (inactive) | 16.2 µM (inactive) | 28.7 µM (inactive) | 27.5 µM (inactive) | 14.7 µM (inactive) |
| Cc1c(-c2ccccc2)c(C#N)c2nnn(C)c(=O)n12 | 57.1 µM (inactive) | > 100 µM (inactive) | > 100 µM (inactive) | > 100 µM (inactive) | > 100 µM (inactive) | > 100 µM (inactive) | > 100 µM (inactive) | > 100 µM (inactive) | > 100 µM (inactive) | > 100 µM (inactive) | > 100 µM (inactive) | > 100 µM (inactive) | > 100 µM (inactive) | > 100 µM (inactive) | > 100 µM (inactive) | > 100 µM (inactive) | > 100 µM (inactive) | > 100 µM (inactive) | > 100 µM (inactive) |
| O=C(N/C=C1\C(=O)Oc2ccccc2C1=O)Oc1ccccc1 | 8.59 µM (inactive) | 21.4 µM (inactive) | 16 µM (inactive) | 23.9 µM (inactive) | 17 µM (inactive) | 16.4 µM (inactive) | 25.6 µM (inactive) |  | 91.4 µM (inactive) | 35.6 µM (inactive) | 21.6 µM (inactive) | 9.64 µM (inactive) | 23.7 µM (inactive) | 14.4 µM (inactive) | 22.4 µM (inactive) | 27.4 µM (inactive) | 30.6 µM (inactive) | 29.9 µM (inactive) | 22.1 µM (inactive) |
| C/C(=N\Nc1ncnc2ccccc12)c1ccccn1 | 0.0371 µM (active) | < 0.011 µM (active) | 0.0279 µM (active) | < 0.0214 µM (active) | < 0.0166 µM (active) | 0.0516 µM (active) | < 0.0244 µM (active) | 0.369 µM (active) | 0.019 µM (active) | 0.0561 µM (active) | < 0.01 µM (active) | 0.2 µM (active) | < 0.0236 µM (active) | 0.0276 µM (active) | < 0.0185 µM (active) | < 0.0168 µM (active) | 0.802 µM (active) | < 0.01 µM (active) | 0.25 µM (active) |
| CN(C)CCNC(=O)c1cc([N+](=O)[O-])cc2c1Oc1ccccc1O2 | 18.2 µM (inactive) | 7.33 µM (inactive) | 24.8 µM (inactive) | 29.4 µM (inactive) | 41.8 µM (inactive) | 11.4 µM (inactive) | 51.8 µM (inactive) | 35.2 µM (inactive) | 18.6 µM (inactive) | 31 µM (inactive) | 15.6 µM (inactive) | 28.6 µM (inactive) | 15.6 µM (inactive) | 12.6 µM (inactive) | 18.5 µM (inactive) | 23.9 µM (inactive) |  | 18.9 µM (inactive) |  |
